The results in this text go back to US11453683B1, “KRas G12D inhibitors” (Mirati Therapeutics, Inc., priority 2019, dated 2022).

Counter-ions that a name gives are not always drawn. Where only a bound is given, the exact number is not on record here.

The test has as its system KRas G12D-mediated phosphorylation of ERK. The test is described as follows: Inhibition of KRas G12D-mediated phosphorylation of ERK in AGS cells. As to conditions: Homo sapiens; AGS cells expressing G12D, 3 hours, phospho-ERK normalized to GAPDH. It counts as cell-based. The method, boiled down:
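Fixed, methanol-permeabilized; phospho-ERK (Thr202/Tyr204) by in-cell immunofluorescence normalized to GAPDH. Percent of DMSO control, IC50 by 4-parameter fit.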

For orientation: IC50 means the concentration that gives 50% inhibition. Lower therefore signals higher potency. Turning to `Cc1c(Cl)cc2[nH]ncc2c1-c1ncc2c(N3CC4CCC(C3)N4)nc(OC[C@@]34CCCN3C[C@H](F)C4)nc2c1F` (stereo in doubt) [Example 401, 4-((1R,5S)-3,8-diazabicyclo[3.2.1]octan-3-yl)-7-(6-chloro-5-methyl-1H-indazol-4-yl)-8-fluoro-2-((2-fluorotetrahydro-1H-pyrrolizin-7a(5H)-yl)methoxy)pyrido[4,3-d]pyrimidine], the midpoint of inhibition, the IC50, lay at 0.604 µM.

In turn, `c1ccc2c(-c3cc4nc(OCC56CCCN5CCC6)nc(N5C[C@H]6CC[C@@H](C5)N6)c4cn3)cccc2c1` [Example 233, 4-((1R,5S)-3,8-diazabicyclo[3.2.1]octan-3-yl)-7-(naphthalen-1-yl)-2-((tetrahydro-1H-pyrrolizin-7a(5H)-yl)methoxy)pyrido[4,3-d]pyrimidine] registered a concentration for half-maximal inhibition (IC50) of 15.6 µM.

The molecule `OCC#Cc1cccc2cccc(-c3ncc4c(N5C[C@H]6CC[C@@H](C5)N6)nc(OCC56CCCN5CCC6)nc4c3F)c12` [Example 193, 3-(8-(4-((1R,5S)-3,8-diazabicyclo[3.2.1]octan-3-yl)-8-fluoro-2-((tetrahydro-1H-pyrrolizin-7a(5H)-yl)methoxy)pyrido[4,3-d]pyrimidin-7-yl)naphthalen-1-yl)prop-2-yn-1-ol] yielded a 50% inhibitory concentration (IC50) of 8.52 µM. This IC50 lies about 1.8-fold lower than the previous one. In turn, `CC(Oc1nc(N2C[C@H]3CC[C@@H](C2)N3)c2cnc(-c3cc(O)cc4ccccc34)c(F)c2n1)C1CCCN1C` (stereo partly drawn) [Example 27, 4-(4-((1R,5S)-3,8-diazabicyclo[3.2.1]octan-3-yl)-8-fluoro-2-(1-(1-methylpyrrolidin-2-yl)ethoxy)pyrido[4,3-d]pyrimidin-7-yl)naphthalen-2-ol] yielded a half-maximal inhibitory concentration (IC50) of 1.28 µM. Against the preceding molecule, the IC50 is about 6.7-fold lower. In the case of `Fc1c(-c2cccc3cccc(Cl)c23)ncc2c(N3CC4CCC(C3)N4)nc(OC[C@]34CCCN3C[C@H](c3ccccc3)C4)nc12` (stereo in doubt) [Example 221, 4-((1R,5S)-3,8-diazabicyclo[3.2.1]octan-3-yl)-7-(8-chloronaphthalen-1-yl)-8-fluoro-2-((2-phenyltetrahydro-1H-pyrrolizin-7a(5H)-yl)methoxy)pyrido[4,3-d]pyrimidine bis-hydrochloride salt] it was 15.8 µM; in that of `CCCOc1nc(N2C[C@H]3CC[C@@H](C2)N3)c2cnc(-c3cc(O)cc4ccccc34)c(F)c2n1` [Example 47, 4-(4-((1R,5S)-3,8-diazabicyclo[3.2.1]octan-3-yl)-8-fluoro-2-propoxypyrido[4,3-d]pyrimidin-7-yl)naphthalen-2-ol], 4.45 µM. Molecule `Fc1cccc(-c2ncc3c(N4C[C@H]5CC[C@@H](C4)N5)nc(OCC45CCCN4CCC5)nc3c2F)c1C(F)(F)F` [Example 292, 4-((1R,5S)-3,8-diazabicyclo[3.2.1]octan-3-yl)-8-fluoro-7-(3-fluoro-2-(trifluoromethyl)phenyl)-2-((tetrahydro-1H-pyrrolizin-7a(5H)-yl)methoxy)pyrido[4,3-d]pyrimidine] came in with a half-inhibitory concentration (IC50) of 1.7 µM. In the case of `Fc1c(-c2cccc3cccc(Cl)c23)ncc2c(N3CC4CCC(C3)N4)nc(OCC34CCCN3C[C@H](F)C4)nc12` (stereo partly drawn) [Example 226, 4-((1R,5S)-3,8-diazabicyclo[3.2.1]octan-3-yl)-7-(8-chloronaphthalen-1-yl)-8-fluoro-2-((2-fluorotetrahydro-1H-pyrrolizin-7a(5H)-yl)methoxy)pyrido[4,3-d]pyrimidine bis-hydrochloride] it was 6.75 µM; in that of `Fc1c(-c2ccccc2C(F)(F)F)ncc2c(N3C[C@H]4CC[C@@H](C3)N4)nc(OCC34CCCN3CCC4)nc12` [Example 370, 4-((1R,5S)-3,8-diazabicyclo[3.2.1]octan-3-yl)-8-fluoro-2-((tetrahydro-1H-pyrrolizin-7a(5H)-yl)methoxy)-7-(2-(trifluoromethyl)phenyl)pyrido[4,3-d]pyrimidine], 10.7 µM; in that of `COCCNC(=O)O[C@@H]1C[C@@H](COc2nc(N3C[C@H]4CC[C@@H](C3)N4)c3cnc(-c4cccc5cccc(Cl)c45)c(F)c3n2)N(C)C1` [Example 280, (3R,5S)-5-(((4-((1R,5S)-3,8-diazabicyclo[3.2.1]octan-3-yl)-7-(8-chloronaphthalen-1-yl)-8-fluoropyrido[4,3-d]pyrimidin-2-yl)oxy)methyl)-1-methylpyrrolidin-3-yl (2-methoxyethyl)carbamate], 6.12 µM. The molecule `CC1(C)CN2CCCC2(COc2nc(N3CC4CCC(C3)N4)c3cnc(-c4cccc5cccc(Cl)c45)c(F)c3n2)C1` [Example 228, 4-((1R,5S)-3,8-diazabicyclo[3.2.1]octan-3-yl)-7-(8-chloronaphthalen-1-yl)-2-((2,2-dimethyltetrahydro-1H-pyrrolizin-7a(5H)-yl)methoxy)-8-fluoropyrido[4,3-d]pyrimidine bis-2,2,2-trifluoroacetate] came in with a concentration for half-maximal inhibition (IC50) of 13.7 µM.

Regarding `Cc1ccc2[nH]ncc2c1-c1ncc2c(N3CC4CCC(C3)N4)nc(OCC34CCCN3C[C@H](F)C4)nc2c1F` (mixture of isomers) [Example 331, 4-((1R,5S)-3,8-diazabicyclo[3.2.1]octan-3-yl)-8-fluoro-2-((2-fluorotetrahydro-1H-pyrrolizin-7a(5H)-yl)methoxy)-7-(5-methyl-1H-indazol-4-yl)pyrido[4,3-d]pyrimidine], the IC50 is 10.8 µM. This IC50 and that of the molecule before are within 1.5-fold of each other. In the case of `O=C1OCCN1C[C@H]1CC[C@@]2(COc3nc(N4CC5CCC(C4)N5)c4cnc(-c5cccc6cccc(Cl)c56)c(F)c4n3)CCCN12` [Example 442, 3-(((3R,7aR)-7a-(((4-(3,8-diazabicyclo[3.2.1]octan-3-yl)-7-(8-chloronaphthalen-1-yl)-8-fluoropyrido[4,3-d]pyrimidin-2-yl)oxy)methyl)hexahydro-1H-pyrrolizin-3-yl)methyl)oxazolidin-2-one] it was 1.16 µM; in that of `Fc1c(-c2ccccc2C2CC2)ncc2c(N3C[C@H]4CC[C@@H](C3)N4)nc(OCC34CCCN3CCC4)nc12` [Example 297, 4-((1R,5S)-3,8-diazabicyclo[3.2.1]octan-3-yl)-7-(2-cyclopropylphenyl)-8-fluoro-2-((hexahydro-1H-pyrrolizin-7a-yl)methoxy)pyrido[4,3-d]pyrimidine], 6.56 µM. In the case of `Cc1c(-c2cc(O)cc3ccccc23)ncc2c(N3C[C@H]4CC[C@@H](C3)N4)nc(OC[C@@H]3CCCN3C)nc12` [Example 190, 4-(4-((1R,5S)-3,8-diazabicyclo[3.2.1]octan-3-yl)-8-methyl-2-(((S)-1-methylpyrrolidin-2-yl)methoxy)pyrido[4,3-d]pyrimidin-7-yl)naphthalen-2-ol] it was 16.3 µM. Then `CC(C)c1c(F)cc(O)cc1-c1ncc2c(N3C[C@H]4CC[C@@H](C3)N4)nc(OC[C@@]34CCCN3C[C@H](F)C4)nc2c1F` [Example 290, 3-(4-((1R,5S)-3,8-diazabicyclo[3.2.1]octan-3-yl)-8-fluoro-2-(((2R,7aS)-2-fluorotetrahydro-1H-pyrrolizin-7a(5H)-yl)methoxy)pyrido[4,3-d]pyrimidin-7-yl)-5-fluoro-4-isopropylphenol], with 0.111 µM.

Take `Cn1nccc1COc1nc(N2C[C@H]3CC[C@@H](C2)N3)c2cnc(-c3cc(O)cc4ccccc34)c(F)c2n1` [Example 5, 4-(4-((1R,5S)-3,8-diazabicyclo[3.2.1]octan-3-yl)-8-fluoro-2-((1-methyl-1H-pyrazol-5-yl)methoxy)pyrido[4,3-d]pyrimidin-7-yl)naphthalen-2-ol]: the concentration for half-maximal inhibition (IC50) is 8.19 µM. Then `Cc1cc2[nH]ccc2c(-c2ncc3c(N4C[C@H]5CC[C@@H](C4)N5)nc(OCC45CCCN4CCC5)nc3c2F)c1C` [Example 250, 4-((1R,5S)-3,8-diazabicyclo[3.2.1]octan-3-yl)-7-(5,6-dimethyl-1H-indol-4-yl)-8-fluoro-2-((hexahydro-1H-pyrrolizin-7a-yl)methoxy)pyrido[4,3-d]pyrimidine], with 7.48 µM; and `C#Cc1c(F)ccc2cccc(-c3ncc4c(N5C[C@H]6CC[C@@H](C5)N6)nc(OC[C@@]56CCCN5C[C@H](F)C6)nc4c3F)c12` [Example 281, 4-((1R,5S)-3,8-diazabicyclo[3.2.1]octan-3-yl)-7-(8-ethynyl-7-fluoronaphthalen-1-yl)-8-fluoro-2-(((2R,7aS)-2-fluorohexahydro-1H-pyrrolizin-7a-yl)methoxy)pyrido[4,3-d]pyrimidine], with 0.0978 µM; and `C#CCc1ccc(O)cc1-c1ncc2c(N3C[C@H]4CC[C@@H](C3)N4)nc(OCC34CCCN3CCC4)nc2c1F` [Example 279, 3-(4-((1R,5S)-3,8-diazabicyclo[3.2.1]octan-3-yl)-8-fluoro-2-((hexahydro-1H-pyrrolizin-7a-yl)methoxy)pyrido[4,3-d]pyrimidin-7-yl)-4-(prop-2-yn-1-yl)phenol], with 7.4 µM.

As to `CN1CCC[C@H]1COc1nc(N2C[C@H]3CC[C@@H](C2)N3)c2cnc(-c3cccc4ccc(F)c(Cl)c34)c(F)c2n1` [Example 44, 4-((1R,5S)-3,8-diazabicyclo[3.2.1]octan-3-yl)-7-(8-chloro-7-fluoronaphthalen-1-yl)-8-fluoro-2-(((S)-1-methylpyrrolidin-2-yl)methoxy)pyrido[4,3-d]pyrimidine], the midpoint of inhibition, the IC50, lay at 2.29 µM. On to `Fc1c(-c2cccc3cccc(Cl)c23)ncc2c(N3C[C@H]4CC[C@@H](C3)N4)nc(OCC34CCCCN3CCC4)nc12` (stereo partly drawn) [Example 54, 4-((1R,5S)-3,8-diazabicyclo[3.2.1]octan-3-yl)-7-(8-chloronaphthalen-1-yl)-8-fluoro-2-((hexahydroindolizin-8a(1H)-yl)methoxy)pyrido[4,3-d]pyrimidine], for which the half-maximal inhibitory concentration (IC50) is > 16.7 µM. In the case of `CCc1cccc2cncc(-c3ncc4c(N5CC6CCC(C5)N6)nc(OCC56CCCN5C[C@H](F)C6)nc4c3F)c12` (mixture of isomers) [Example 324, 4-((1R,5S)-3,8-diazabicyclo[3.2.1]octan-3-yl)-7-(5-ethylisoquinolin-4-yl)-8-fluoro-2-((2-fluorotetrahydro-1H-pyrrolizin-7a(5H)-yl)methoxy)pyrido[4,3-d]pyrimidine] it was 0.864 µM.
